The results in this text go back to US8895611B1, “Cytotoxic compounds for treating cancer” (King Fahd University of Petroleum and Minerals, priority 2013, dated 2014).

The subject of data set [1] is prostate cancer cells (PC-3). Briefly: MTT cell proliferation / cytotoxicity assay with trypan blue dye exclusion, PC-3 cells. The class given is cell-based, human. The note with it: for activity / inhibition against human prostate cancer cells (PC-3): after 24 and 72 hours of treatment, FIGS. 1A-3B. The procedure: (§1) In FIGS. 1A-3B, the cells were treated with a concentration of 10 μM of each compound.
(§2) The anti-proliferative effect was measured by MTT assay.
(§3) Six duplicate wells were set up for each sample, and cells untreated with a compound served as a control. Treatment was conducted at 24 and 72 hours, respectively. After incubation, 10 μL MTT (6 g/L, Sigma) was added to each well and the incubation was continued for 4 hours at 37° C. After removal of the medium, MTT stabilization solution (dimethylsulphoxide: ethanol=1:1) was added to each well, and shaken for ten minutes until all crystals were dissolved. Then, optical density was detected in a micro plate reader at 550 nm wavelength using an enzyme-linked immunosorbent assay (ELISA) reader. Each assay was performed in triplicate. Cell number and viability were determined by trypan blue dye exclusion analysis.
(§4) The cytotoxicity assay was performed with various concentrations of the synthesized gold (III) complexes on PC-3 and SGC-7901 cells.

Data set [2] concerns human gastric cancer cells (SGC-7901). The experiment in a line: MTT cell proliferation / cytotoxicity assay with trypan blue dye exclusion, SGC-7901 cells. In kind it is cell-based. The note with it: for activity / inhibition against gastric cancer cells SGC-7901: after 24 and 72 hours of treatment, FIGS. 1A-3B. As for the experimental part: as §1, §2, §3, §4

For the compound `N[C@H]1CCCC[C@@H]1N.[Cl][Au]([Cl])[Cl]` [compound 3, (S,S)-(+)-1,2-(DACH)AuCl3], in data set [1] (10 μM), the “activity / inhibition against human prostate cancer cells (PC-3)” value (“activity / inhibition … (PC-3)” below) is “moderate inhibition”. Besides, the “bioactivity on PC-3 cells, trans-(1R,2R) compared with trans-(1S,2S) isomer” value in data set [1] (conclusion from FIGS. 1A-6B) is “no significant difference in the bioactivity”. Moreover, in data set [2] (10 μM), the “activity / inhibition against gastric cancer cells SGC-7901” value is listed as “moderate inhibition”. Further, the “bioactivity on SGC-7901 cells, trans-(1R,2R) compared with trans-(1S,2S) isomer” value in data set [2] (conclusion from FIGS. 1A-6B) is given as “no significant difference in the bioactivity”.

As to cis-(±)-1,2-(DACH)AuCl3 [compound 1], the “activity / inhibition … (PC-3)” value in data set [1] (10 μM) is reported as “potentially high activity”. The “cytotoxic effect on PC-3 cells, compound 1 compared with compound 2” value in data set [1] (10 μM, one, two and three days, FIG. 7A) is given as “higher cytotoxic effect in comparison with the same concentration of compound 2”. Besides, the “cell proliferation of PC-3 cells compared with SGC-7901 cells” value in data set [1] (fixed 10 μM, after 72 hours, FIGS. 1A and 1B) is on record as “bit higher than that of the SGC-7901 cells”. The “activity / inhibition against gastric cancer cells SGC-7901” value in data set [2] (10 μM) is reported as “potentially high activity”. Besides, in data set [2] (10 μM, one, two and three days, FIG. 7B), the “cytotoxic effect on SGC-7901 cells, compound 1 compared with compound 2” value was “higher cytotoxic effect in comparison with the same concentration of compound 2”.

For the compound trans-(±)-1,2-(DACH)AuCl3 [compound 2], the “activity / inhibition … (PC-3)” value in data set [1] (10 μM) is “moderate inhibition”. In addition, the “activity / inhibition against gastric cancer cells SGC-7901” value in data set [2] (10 μM) is “moderate inhibition”.
